# From patent US20060039856A1, “Magnetic resonance with stimulation” (McLean Hospital Corporation, priority 2001, published 2006)
# Tested on: right and left V1 (primary visual cortex) BOLD signal
# Test: BOLD fMRI of visual cortex during red and blue photic stimulation after oral drug or placebo
# Conditions: for mean BOLD signal change, higher in drug than in placebo condition: all trials, 2.5 mg oral
smiles,measurement,setting,value
"C[C@H](N)Cc1ccccc1.C[C@H](N)Cc1ccccc1.O=S(=O)(O)O [d-amphetamine, d-amphetamine sulfate]","mean BOLD signal change, higher in drug than in placebo condition","blue light 0.12 lux, drug vs placebo (1.60%)",28%
same,effect of time following drug administration on BOLD signal response (linear regression),"blue light, Z=-2.471, P=0.013, decreasing BOLD signal over time",significant effect of time
same,"mean BOLD signal change, higher in drug than in placebo condition","red light 0.12 lux, drug vs placebo (0.95%)",30%
same,effect of time following drug administration on BOLD signal response (linear regression),"red light, Z=-0.470, P=0.638",no significant effect of drug over time
